Experimental findings from patent US20230271964A1, “5-AMINO-8-(4-PYRIDYL)-[1,2,4]TRIAZOLO[4,3-C]PYRIMIDIN-3-ONE COMPOUNDS FOR USE AGAINST CANCER” (ASTRAZENECA AB, priority 2020, published 2023) are described below.

For experiment [1], the target named is human adenosine A1 receptor (Homo sapiens (Human), UniProt P30542). Nature of the experiment: Adenosine receptor inhibition binding assay, [3H]DPCPX, A1 receptor membranes. Particulars: 1 nM [3H]DPCPX, 25° C., 1 h, Ki from IC50 by Cheng-Prusoff. The essentials: (§1)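 Membranes from BacMam-transduced HEK293 cells (0.2 µg A2A; 1.4 µg A1) incubated 1 h at 25 °C with 1 nM radioligand; A2A in 50 mM Tris-HCl pH 7.4, A1 buffer adds 100 mM NaCl, 10 mM MgCl2. Nonspecific binding: 1 µM CGS 15943 (A2A) or 1 µM DPCPX (A1). Filtration, scintillation counting; IC50 converted to Ki via Cheng-Prusoff.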

Experiment [2] concerns the target human adenosine A2A receptor (Homo sapiens (Human), UniProt P29274). The experiment in a line: Adenosine receptor inhibition binding assay, [3H]ZM241385, HEK293 A2A receptor membranes. The note with it: 1 nM [3H]ZM241385, HEK293-hA2A membranes, 25° C., 1 h, Ki from IC50 by Cheng-Prusoff. In a few lines:
as §1

Experiment [3] concerns the target human CB1 receptor (Homo sapiens (Human), UniProt P21554). Nature of the experiment: CB1 receptor antagonism, agonist-induced cAMP modulation (HTRF) in transfected CHO cells. In kind it is cell-based. The note with it: read-out: Antag IC50. On the procedure: Receptor antagonism: Evaluation of the antagonist activity of compounds at the human CB1 receptor expressed in transfected CHO cells, determined by measuring their effects on agonist-induced cAMP modulation using the HTRF detection method.
Thereafter, the reference agonist CP 55940 and the adenylyl cyclase activator NKH 477 are added at respective final concentrations of 3 nM and 3 µM.
For basal control measurements, CP 55940 is omitted from the wells containing 3 µM AM 281.
Following 20 min incubation at 37° C., the cells are lysed and the fluorescence acceptor (D2-labeled cAMP) and fluorescence donor (anti-cAMP antibody labeled with europium cryptate) are added.
After 60 min at room temperature, the fluorescence transfer is measured at λex=337 nm and λem=620 and 665 nm using a microplate reader (Rubystar, BMG). The cAMP concentration is determined by dividing the signal measured at 665 nm by that measured at 620 nm (ratio).
The standard reference antagonist is AM 281, which is tested in each experiment at several concentrations to generate a concentration-response curve from which its IC50 value is calculated.
A general note: Time-resolved FRET reads energy transfer from a long-lived donor to a nearby acceptor.

Experiment [4] deals with human CB-1 cannabinoid receptor (Homo sapiens (Human), UniProt P21554). The experiment in a line: CB-1 receptor radioligand binding assay, [3H]CP 55940, transfected CHO cell membranes. The note with it: 0.5 nM [3H]CP 55940, CHO cell membranes, 120 min at 37° C. As to the method:
Nonspecific binding is determined in the presence of 10 µM WIN 55212-2.
Following incubation, the samples are filtered rapidly under vacuum through glass fiber filters (GF/B, Packard) presoaked with 0.3% PEI and rinsed several times with an ice-cold buffer containing 50 mM Tris-HCl (pH 7.4) and 0.5% BSA using a 96-sample cell harvester (Unifilter, Packard). The filters are dried then counted for radioactivity in a scintillation counter (Topcount, Packard) using a scintillation cocktail (Microscint 0, Packard).
The standard reference compound is CP 55940 which is tested in each experiment at several concentrations to obtain a competition curve from which its IC50 is calculated.

Chain of human adenosine A2A receptor (P29274 whole entry): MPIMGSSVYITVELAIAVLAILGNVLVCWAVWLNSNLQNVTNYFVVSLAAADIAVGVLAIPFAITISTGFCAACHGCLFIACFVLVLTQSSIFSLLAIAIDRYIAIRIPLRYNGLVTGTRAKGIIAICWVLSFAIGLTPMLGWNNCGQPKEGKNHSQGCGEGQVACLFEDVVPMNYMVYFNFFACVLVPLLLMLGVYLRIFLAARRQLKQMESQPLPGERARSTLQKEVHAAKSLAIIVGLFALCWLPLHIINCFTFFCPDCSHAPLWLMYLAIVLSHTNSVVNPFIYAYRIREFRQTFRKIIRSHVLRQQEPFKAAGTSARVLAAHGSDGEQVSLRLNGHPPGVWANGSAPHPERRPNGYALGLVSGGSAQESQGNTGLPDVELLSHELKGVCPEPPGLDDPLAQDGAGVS
Chain of human CB1 receptor (P21554 whole entry): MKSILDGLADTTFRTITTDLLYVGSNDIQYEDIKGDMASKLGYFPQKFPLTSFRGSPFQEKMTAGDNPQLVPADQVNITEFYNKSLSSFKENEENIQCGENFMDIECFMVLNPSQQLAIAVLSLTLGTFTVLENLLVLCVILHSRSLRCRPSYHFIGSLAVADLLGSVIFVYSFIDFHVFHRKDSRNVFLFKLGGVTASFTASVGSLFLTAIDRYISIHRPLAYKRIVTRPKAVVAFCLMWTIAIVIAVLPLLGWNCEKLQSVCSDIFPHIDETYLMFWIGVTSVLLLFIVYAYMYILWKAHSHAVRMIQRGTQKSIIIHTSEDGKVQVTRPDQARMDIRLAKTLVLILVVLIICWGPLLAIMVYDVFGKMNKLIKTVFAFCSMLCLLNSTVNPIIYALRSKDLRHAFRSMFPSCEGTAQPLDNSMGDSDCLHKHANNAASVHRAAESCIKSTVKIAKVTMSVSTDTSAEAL
Chain of human CB-1 cannabinoid receptor (P21554 whole entry): as above
Chain of human adenosine A1 receptor (P30542 whole entry): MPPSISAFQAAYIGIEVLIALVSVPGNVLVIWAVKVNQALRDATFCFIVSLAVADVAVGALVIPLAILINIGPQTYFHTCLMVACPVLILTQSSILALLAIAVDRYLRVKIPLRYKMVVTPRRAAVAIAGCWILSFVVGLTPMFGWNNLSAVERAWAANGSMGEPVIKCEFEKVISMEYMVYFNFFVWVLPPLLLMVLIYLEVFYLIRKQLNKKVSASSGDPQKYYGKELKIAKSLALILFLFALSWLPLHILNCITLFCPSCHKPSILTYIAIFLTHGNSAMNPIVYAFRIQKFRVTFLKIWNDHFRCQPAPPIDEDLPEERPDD

In general, IC50 refers to the concentration that inhibits the measured activity by half. As to `COc1cc(-c2c(-c3ccccc3)nc(N)n3c(=O)n(Cc4ncoc4C)nc23)cc(CO)n1` [Example 1-60, 5-amino-8-[2-(hydroxymethyl)-6-methoxy-4-pyridyl]-2-[(5-methyloxazol-4-yl)methyl]-7-phenyl-[1,2,4]triazolo[4,3-c]pyrimidin-3-one], the “A1 pKi” value in experiment [1] was 6.8. In addition, the “A2A pKi” value in experiment [2] is recorded as 9.9. Further, the IC50 in experiment [3] was greater than 100 µM. The compound further returned a Ki in experiment [4] of 66.7 µM.
`Cc1cc(-c2c(-c3ccccc3)nc(N)n3c(=O)n(Cc4cc(C)on4)nc23)cc(CO)n1` [Example 1-43, 5-amino-8-[2-(hydroxymethyl)-6-methyl-4-pyridyl]-2-[(5-methylisoxazol-3-yl)methyl]-7-phenyl-[1,2,4]triazolo[4,3-c]pyrimidin-3-one]: the “A1 pKi” value in experiment [1] is reported as 6.7. Besides, the “A2A pKi” value in experiment [2] came out at 9.1. The concentration for half-maximal inhibition (IC50) in experiment [3] was greater than 100 µM. The compound further registered a Ki in experiment [4] of 86.9 µM.
In the same order, the values of `Cc1cc(-c2c(-c3ccccc3)nc(N)n3c(=O)n(Cc4ncoc4C)nc23)cc(C)n1` [Example 1-22, 5-amino-8-(2,6-dimethyl-4-pyridyl)-2-[(5-methyloxazol-4-yl)methyl]-7-phenyl-[1,2,4]triazolo[4,3-c]pyrimidin-3-one] are 7.4, 10.1, greater than 100 µM and 29.6 µM.
Take `Cc1cc(-c2c(-c3ccccc3)nc(N)n3c(=O)n(C[C@H]4CC(F)(F)CN4C)nc23)cc(C)n1` [Example 2-14, 5-amino-2-[[(2R)-4,4-difluoro-1-methyl-pyrrolidin-2-yl]methyl]-8-(2,6-dimethyl-4-pyridyl)-7-phenyl-[1,2,4]triazolo[4,3-c]pyrimidin-3-one]: the Ki in experiment [1] (read-out: A1 pKi (converted)) is 0.1 µM; in experiment [2] (read-out: A2A pKi (converted)), 0.00316 µM; in experiment [4], 36.4 µM. In addition, the IC50 in experiment [3] amounted to 35.8 µM.
Take `Cc1cc(-c2c(-c3ccccc3)nc(N)n3c(=O)n(CCN4CCCC4c4cccs4)nc23)cc(C)n1` (centres unmarked) [Example 3-1, 5-amino-8-(2,6-dimethyl-4-pyridyl)-7-phenyl-2-[2-[2-(2-thienyl)pyrrolidin-1-yl]ethyl]-[1,2,4]triazolo[4,3-c]pyrimidin-3-one]: the “A1 pKi” value in experiment [1] is 7.6. Besides, in experiment [2], the “A2A pKi” value is listed as 8.9. Moreover, in experiment [3], the IC50 was found to be 10.1 µM. In addition, the Ki in experiment [4] was determined as 29.2 µM.
In the same order, the values of `Cc1cc(-c2c(-c3ccc(F)cc3)nc(N)n3c(=O)n(Cc4ncoc4C)nc23)cc(CO)n1` [Example 1-51, 5-amino-7-(4-fluorophenyl)-8-[2-(hydroxymethyl)-6-methyl-4-pyridyl]-2-[(5-methyloxazol-4-yl)methyl]-[1,2,4]triazolo[4,3-c]pyrimidin-3-one] are 6.4, 9.4, greater than 100 µM and 80.3 µM.
As to `Cc1cc(-c2c(-c3ccc(F)cc3)nc(N)n3c(=O)n(Cc4ncoc4C)nc23)cc(C)n1` [Example 1-31, 5-amino-8-(2,6-dimethyl-4-pyridyl)-7-(4-fluorophenyl)-2-[(5-methyloxazol-4-yl)methyl]-[1,2,4]triazolo[4,3-c]pyrimidin-3-one], the “A1 pKi” value in experiment [1] amounted to 7.0. Further, the “A2A pKi” value in experiment [2] was 9.6. Further, the IC50 in experiment [3] was determined as 12.1 µM. For the same compound, the Ki in experiment [4] came to 26.1 µM.
Take `Cc1ocnc1Cn1nc2c(-c3cc(C)[n+]([O-])c(C)c3)c(-c3ccc(F)cc3)nc(N)n2c1=O` [Example 1-37, 5-amino-8-(2,6-dimethyl-1-oxido-pyridin-1-ium-4-yl)-7-(4-fluorophenyl)-2-[(5-methyloxazol-4-yl)methyl]-[1,2,4]triazolo[4,3-c]pyrimidin-3-one]: the “A1 pKi” value in experiment [1] was found to be 6.8. In experiment [2], the “A2A pKi” value was 8.8. Further, the half-maximal inhibitory concentration (IC50) in experiment [3] is greater than 100 µM.
The corresponding values for `Cc1nc(Cn2nc3c(-c4cc(C)[n+]([O-])c(C)c4)c(-c4ccc(F)cc4)nc(N)n3c2=O)c(C)o1` [Example 1-35, 5-amino-2-[(2,5-dimethyloxazol-4-yl)methyl]-8-(2,6-dimethyl-1-oxido-pyridin-1-ium-4-yl)-7-(4-fluorophenyl)-[1,2,4]triazolo[4,3-c]pyrimidin-3-one] are 7.4, 8.4 and greater than 100 µM.
The corresponding values for `Cc1cc(-c2c(-c3ccccc3)nc(N)n3c(=O)n(C[C@@H]4CCCO4)nc23)cc(CO)n1` [Example 2-28, 5-amino-8-[2-(hydroxymethyl)-6-methyl-4-pyridyl]-7-phenyl-2-[[(2S)-tetrahydrofuran-2-yl]methyl]-[1,2,4]triazolo[4,3-c]pyrimidin-3-one] are 6.5, 9.1 and greater than 100 µM.
`Cc1cc(-c2c(-c3ccc(F)cc3)nc(N)n3c(=O)n(Cc4nccn4C)nc23)cc(CO)n1` [Example 1-50, 5-amino-7-(4-fluorophenyl)-8-[2-(hydroxymethyl)-6-methyl-4-pyridyl]-2-[(1-methylimidazol-2-yl)methyl]-[1,2,4]triazolo[4,3-c]pyrimidin-3-one]: in experiment [1], the “A1 pKi” value was found to be 6.5. In addition, in experiment [2], the “A2A pKi” value is on record as 9.5. In experiment [3], the IC50 is greater than 100 µM. In experiment [4], this compound came in with a Ki of 86.1 µM.
Regarding `Cc1cc(-c2c(-c3ccc(F)cc3)nc(N)n3c(=O)n(Cc4ccn(C)n4)nc23)cc(CO)n1` [Example 1-52, 5-amino-7-(4-fluorophenyl)-8-[2-(hydroxymethyl)-6-methyl-4-pyridyl]-2-[(1-methylpyrazol-3-yl)methyl]-[1,2,4]triazolo[4,3-c]pyrimidin-3-one], in experiment [1], the “A1 pKi” value was 6.7. Also, in experiment [2], the “A2A pKi” value was 8.6. The concentration for half-maximal inhibition (IC50) in experiment [3] is greater than 100 µM.
In the same order, the values of `Cc1cc(-c2c(-c3ccccc3)nc(N)n3c(=O)n(C[C@H]4CCCO4)nc23)cc(CO)n1` [Example 2-29, 5-amino-8-[2-(hydroxymethyl)-6-methyl-4-pyridyl]-7-phenyl-2-[[(2R)-tetrahydrofuran-2-yl]methyl]-[1,2,4]triazolo[4,3-c]pyrimidin-3-one] are 6.4, 9.3 and greater than 100 µM.
The corresponding values for `Cc1cc(-c2c(-c3ccc(F)cc3)nc(N)n3c(=O)n(Cc4nc(C)oc4C)nc23)cc(CO)n1` [Example 1-53, 5-amino-2-[(2,5-dimethyloxazol-4-yl)methyl]-7-(4-fluorophenyl)-8-[2-(hydroxymethyl)-6-methyl-4-pyridyl]-[1,2,4]triazolo[4,3-c]pyrimidin-3-one] are 6.5, 9.2 and greater than 100 µM.
The corresponding values for `Cn1ccnc1Cn1nc2c(-c3cc(Cl)nc(CO)c3)c(-c3ccccc3)nc(N)n2c1=O` [Example 1-55, 5-amino-8-[2-chloro-6-(hydroxymethyl)-4-pyridyl]-2-[(1-methylimidazol-2-yl)methyl]-7-phenyl-[1,2,4]triazolo[4,3-c]pyrimidin-3-one] are 7.5, 9.4 and greater than 100 µM.
As for `Nc1nc(-c2ccccc2)c(-c2cc(Cl)nc(CO)c2)c2nn(C[C@H]3CCCO3)c(=O)n12` [Example 2-32, 5-amino-8-[2-chloro-6-(hydroxymethyl)-4-pyridyl]-7-phenyl-2-[[(2R)-tetrahydrofuran-2-yl]methyl]-[1,2,4]triazolo[4,3-c]pyrimidin-3-one], the “A1 pKi” value in experiment [1] is listed as 6.6. Besides, the “A2A pKi” value in experiment [2] is listed as 9.6. Moreover, the IC50 in experiment [3] was greater than 100 µM.
In the same order, the values of `Cc1cc(-c2c(-c3ccccc3)nc(N)n3c(=O)n(CCc4nnnn4C)nc23)cc(C)n1` [Example 1-5, 5-amino-8-(2,6-dimethyl-4-pyridyl)-2-[2-(1-methyltetrazol-5-yl)ethyl]-7-phenyl-[1,2,4]triazolo[4,3-c]pyrimidin-3-one] are less than 5.4, 7.2 and greater than 100 µM.
